Consider two compounds from the NIST ThermoML archive (doi:10.1016/j.tca.2012.05.036).

For data set [1] the following is noted: 101.33 kPa, Liquid, Vibrating tube method.
Data set [2] in a line: refractive index (Na D-line) (dimensionless). Particulars: 101.33 kPa, Liquid, Standard Abbe refractometry.
Data set [3] can be described thus: relative permittivity at zero frequency (dimensionless). The following applies: 101.33 kPa, Liquid, Parallel plate capacitor.

Numbers after ± are expanded uncertainties.

Usually mass density stands for the mass of a sample divided by its volume. Broadly, the refractive index is the speed of light in vacuum divided by its phase velocity in the sample. For the compound `CCCCCCCC` [octane], the mass density in data set [1] (288.15 K) came to 706.81 ± 0.32 kg/m3; in data set [1] (293.15 K), 702.77 ± 0.32 kg/m3; in data set [1] (298.15 K) it was 698.73 ± 0.32 kg/m3; in data set [1] (303.15 K), 694.7 ± 0.32 kg/m3; in data set [1] (308.15 K), 690.67 ± 0.32 kg/m3. Further, the refractive index in data set [2] (293.15 K) was 1.3991 ± 0.0005; in data set [2] (298.15 K), 1.3967 ± 0.0005; in data set [2] (303.15 K), 1.3945 ± 0.0005. Moreover, the “relative permittivity at zero frequency” value turned out to be 1.975 ± 0.12 in data set [3] (288.15 K); 1.968 ± 0.12 in data set [3] (293.15 K); 1.961 ± 0.12 in data set [3] (298.15 K); 1.954 ± 0.12 in data set [3] (303.15 K); 1.947 ± 0.12 in data set [3] (308.15 K).

`CCCCCO` [pentan-1-ol]: the mass density in data set [1] (288.15 K) worked out at 818.49 ± 0.31 kg/m3; in data set [1] (293.15 K), 814.82 ± 0.31 kg/m3; in data set [1] (298.15 K), 811.19 ± 0.31 kg/m3; in data set [1] (303.15 K) it was 807.5 ± 0.31 kg/m3; in data set [1] (308.15 K), 803.86 ± 0.31 kg/m3. In addition, the refractive index in data set [2] (293.15 K) came out at 1.41001 ± 0.00053; in data set [2] (298.15 K), 1.4084 ± 0.0005; in data set [2] (303.15 K), 1.4065 ± 0.0005. Also, the “relative permittivity at zero frequency” value in data set [3] (288.15 K) came out at 16.334 ± 0.98; in data set [3] (293.15 K), 15.736 ± 0.94; in data set [3] (298.15 K), 15.144 ± 0.91; in data set [3] (303.15 K), 14.565 ± 0.87; in data set [3] (308.15 K), 13.998 ± 0.84.
